Here are results for 15 compounds from patent US12617762B2, “Carboxy derivatives with antiinflamatory properties” (Sitryx Therapeutics Limited, priority 2019, dated 2026).

Data set [1] deals with IL-1β cytokine output from THP-1s. The experiment in a line: THP-1 AlphaLISA IL-1β cytokine inhibition assay. It is filed as cell-based. The note with it: for IC50: Homo sapiens; for IL-1β lowering, result in words: THP-1 IL-1β assay. The procedure, abridged: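 IL-1β release by AlphaLISA, expressed as % inhibition against +/− LPS controls on each plate. Differentiation: PMA, 72 h. Sequence: 30 min compound pre-treatment, LPS 24 h, Nigericin 1 h before supernatant harvest, all at 37° C./5% CO2.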

The test system of data set [2] is IL-6 cytokine output from THP-1s. The experiment in a line: THP-1 AlphaLISA IL-6 cytokine inhibition assay. It is filed as cell-based. The note with it: Homo sapiens, LPS then nigericin. The method, then: The cytokine inhibition profiles of compounds of formula (I) were determined in a differentiated THP-1 cell assay. All assays were performed in RPMI-1640 growth medium (Gibco), supplemented with 10% fetal bovine serum (FBS; Gibco), 1% penicillin-streptomycin and 1% sodium pyruvate unless specified otherwise. The IL-1β cytokine inhibition assay was run in a background of differentiated THP-1 cells as described below. All reagents described were from Sigma-Aldrich unless specified otherwise. Compounds were prepared as 10 mM DMSO stocks.
THP-1 cells were expanded as a suspension up to 80% confluence in appropriate growth medium. Cells were harvested, suspended, and treated with an appropriate concentration of phorbol 12-myristate 13-acetate (PMA) over a 72 hr period (37° C./5% CO2).
Following 72 hrs of THP-1 cell incubation, cellular medium was removed and replaced with fresh growth media containing 1% of FBS. Working concentrations of compounds were prepared separately in 10% FBS treated growth medium and pre-incubated with the cells for 30 minutes (37° C./5% CO2). Following the 30 minute compound pre-incubation, THP-1s were treated with an appropriate concentration of LPS and the cells were subsequently incubated for a 24 hr period (37° C./5% CO2). An appropriate final concentration of Nigericin was then dispensed into the THP-1 plates and incubated for 1 hour (37° C./5% CO2) before THP-1 supernatants were harvested and collected in separate polypropylene 96-well holding plates.
Reagents from an IL-1β and IL-6 commercial kit (Perkin Elmer) were prepared and run according to the manufacturer's instructions. Subsequently, fluorescence signal detection in a microplate reader was measured (EnVision® Multilabel Reader, Perkin Elmer).
Percentage inhibition was calculated per cytokine by normalising the sample data to the high and low controls used within each plate (+/− LPS respectively).

A short description of data set [3]: Hepatocyte stability assay, mouse. The note with it: mouse, hepatocytes; for hepatocyte CLint at 10 μM: Hepatocyte stability Clint; for half-life at 10 μM: Hepatocyte stability T½. It is filed as in vitro ADME. An outline of the steps: (§1)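 Thawed cryopreserved hepatocytes (viability >70%) at 0.5×10^6 cells/mL in Leibovitz buffer were preincubated at 37° C, then given 10 μM compound (0.1% DMSO) in duplicate. Samples at 0–60 min were quenched in acetonitrile and analysed by LC-MS/MS. Intrinsic clearance and half-life were derived from ln % remaining versus time.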

Data set [4] in a line: Hepatocyte stability assay, human. The note with it: human, hepatocytes; for hepatocyte CLint at 10 μM: Hepatocyte stability Clint; for half-life at 10 μM: Hepatocyte stability T½. It is filed as in vitro ADME. The procedure, abridged:
as §1

Data set [5] relates to NRF2 (nuclear factor erythroid 2-related factor 2). The experiment in a line: NRF2 +/-GSH activation assay (DiscoverX PathHunter NRF2 translocation kit, U2OS cells). It is filed as cell-based. An outline of the steps:
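Activation is expressed as percent of plate DMF (high) versus no-DMF (low) controls, from luminescence after 6 h compound exposure at 37 °C of U2OS PathHunter cells. The +GSH condition used compound pre-incubated 30 min in 6 mM working GSH; −GSH cells received compound directly.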

[6] abbreviates: THP-1, differentiated THP-1 cells, LPS then nigericin.
[7] abbreviates: THP-1, differentiated THP-1 cells.
The mark [8] stands for this setting: THP-1, Table 3, head to head comparison of exo vs endo double bond compounds.
Where [9] appears, read: +GSH, 30 minute compound-GSH pre-incubation, read-out: NRF2 activation +GSH EC50.
The mark [10] stands for this setting: +GSH, normalised to DMF high control.
Setting [11] is: −GSH, U2OS PathHunter cells, 6 hours compound treatment, read-out: NRF2 activation −GSH EC50.
The mark [12] stands for this setting: −GSH, normalised to DMF high control.

The structures appear in SMILES notation. Like-named read-outs stand apart in the source and are kept apart here.

`C=C(Cc1nc(-c2ccc(Cl)cc2)c(CCCC)o1)C(=O)O` [Example 109, 2-((5-butyl-4-(4-chlorophenyl)oxazol-2-yl)methyl)acrylic acid]: the half-maximal inhibitory concentration (IC50) in data set [1] (setting [6]) was over 31.6 µM; in data set [2] (setting [7]) it was 10.6 µM. Moreover, the intrinsic metabolic clearance (hepatocyte CLint) at 10 μM was 61 µL/min/1e6 cells in data set [3] and 20 µL/min/1e6 cells in data set [4]. For the same compound, the half-life at 10 μM in data set [3] came out at 28 min; in data set [4] it was 79 min.

For the compound `C=C(Cc1noc(C(F)(F)c2ccc(Cl)cc2)n1)C(=O)O` [Example 84, 2-((5-((4-chlorophenyl)difluoromethyl)-1,2,4-oxadiazol-3-yl)methyl)acrylic acid], the half-maximal inhibitory concentration (IC50) was 39 µM in data set [1] (setting [6]) and 23.1 µM in data set [2] (differentiated THP-1 cells). For the same compound, the figures for the hepatocyte CLint at 10 μM in data set [3] and in data set [4] were 83 µL/min/1e6 cells and 14 µL/min/1e6 cells, respectively. The results for the half-life at 10 μM in data set [3] and in data set [4] were 21 min and 115 min, respectively.

For the compound `CCCCCCCCc1noc(/C=C(\C)C(=O)O)n1` [Example 166, (E)-2-methyl-3-(3-octyl-1,2,4-oxadiazol-5-yl)acrylic acid], the IC50 in data set [1] (setting [8]) was over 31.6 µM; in data set [1] (setting [6]), over 31.6 µM; in data set [2] (differentiated THP-1 cells), 31.5 µM. Besides, the hepatocyte CLint at 10 μM was found to be 204 µL/min/1e6 cells in data set [3] and 260 µL/min/1e6 cells in data set [4]. Moreover, the half-life at 10 μM in data set [3] worked out at 7 min; in data set [4], 6 min.

For the compound `C=C(Cc1nc(C2(c3ccc(OC(F)(F)C(F)F)cc3)CC2)no1)C(=O)O` [Example 82, 2-((3-(1-(4-(1,1,2,2-tetrafluoroethoxy)phenyl)cyclopropyl)-1,2,4-oxadiazol-5-yl)methyl)acrylic acid], the IC50 worked out at 14.5 µM in data set [1] (setting [6]) and 20.7 µM in data set [2] (setting [7]). For the same compound, the results for the intrinsic metabolic clearance (hepatocyte CLint) at 10 μM in data set [3] and in data set [4] were 30 µL/min/1e6 cells and under 3 µL/min/1e6 cells, respectively. In addition, the half-life at 10 μM in data set [3] is 58 min; in data set [4], over 460 min.

Regarding `C=C(Cc1nc(C(F)(F)c2ccc(C(F)(F)F)cc2)no1)C(=O)O` [Example 92, 2-((3-(difluoro(4-(trifluoromethyl)phenyl)methyl)-1,2,4-oxadiazol-5-yl)methyl)acrylic acid], the IC50 in data set [1] (setting [6]) is 6.7 µM; in data set [2] (setting [7]), 19.9 µM. The values for the hepatocyte CLint at 10 μM in data set [3] and in data set [4] were 23 µL/min/1e6 cells and under 3 µL/min/1e6 cells, respectively. The values for the half-life at 10 μM in data set [3] and in data set [4] were 84 min and over 460 min, respectively.

Consider `C=C(Cc1nc(C2(c3cc(Cl)cc(Cl)c3)CC2)no1)C(=O)O` [Example 67, 2-((3-(1-(3,5-dichlorophenyl)cyclopropyl)-1,2,4-oxadiazol-5-yl)methyl)acrylic acid], for which the 50% inhibitory concentration (IC50) is 69.4 µM in data set [1] (setting [6]) and 4.1 µM in data set [2] (setting [7]). In addition, the intrinsic metabolic clearance (hepatocyte CLint) at 10 μM worked out at 92 µL/min/1e6 cells in data set [3] and 70 µL/min/1e6 cells in data set [4]. Further, the half-life at 10 μM in data set [3] was found to be 13 min; in data set [4] it was 23 min.

For the compound `C=C(Cc1nc(Cc2ccc(OC(F)(F)C(F)F)cc2)no1)C(=O)O` [Example 81, 2-((3-(4-(1,1,2,2-tetrafluoroethoxy)benzyl)-1,2,4-oxadiazol-5-yl)methyl)acrylic acid], the IC50 came to 22 µM in data set [1] (setting [6]) and 12.8 µM in data set [2] (setting [7]). For the same compound, the hepatocyte CLint at 10 μM in data set [3] is 94 µL/min/1e6 cells; in data set [4], under 3 µL/min/1e6 cells. The half-life at 10 μM was 18 min in data set [3] and over 460 min in data set [4].

Consider `C=C(Cc1nc(C2(c3ccc(C(F)(F)F)c(Cl)c3)CC2)no1)C(=O)O` [Example 136, 2-((3-(1-(3-chloro-4-(trifluoromethyl)phenyl)cyclopropyl)-1,2,4-oxadiazol-5-yl)methyl)acrylic acid], for which the concentration for half-maximal inhibition (IC50) turned out to be 2.9 µM in data set [1] (setting [6]) and 3.9 µM in data set [2] (differentiated THP-1 cells). Also, the values for the intrinsic clearance (hepatocyte CLint) at 10 μM in data set [3] and in data set [4] were 79 µL/min/1e6 cells and 44 µL/min/1e6 cells, respectively. For the same compound, the results for the half-life at 10 μM in data set [3] and in data set [4] were 16 min and 32 min, respectively.

In the case of `C=C(Cc1nc(C(C)(C)c2ccc(Cl)cc2)no1)C(=O)O` [Example 30, 2-((3-(2-(4-chlorophenyl)propan-2-yl)-1,2,4-oxadiazol-5-yl)methyl)acrylic acid], the results for the IC50 in data set [1] (setting [6]) and in data set [2] (setting [7]) were 53.3 µM and over 100 µM, respectively. Moreover, the “IL-1β lowering, result in words” value in data set [1] is “not effective”. Besides, the EC50 in data set [5] (setting [9]) and in data set [5] (setting [11]) was over 100 µM throughout. Also, the “NRF2 activation +GSH Emax” value in data set [5] (setting [10]) is given as 12%. Besides, in data set [5] (setting [12]), the “NRF2 activation −GSH Emax” value turned out to be 36%.

As for `C=C(Cc1nc(Cc2ccc(C3(C(F)(F)F)CC3)cc2)no1)C(=O)O` [Example 48, 2-((3-(4-(1-(trifluoromethyl)cyclopropyl)benzyl)-1,2,4-oxadiazol-5-yl)methyl)acrylic acid], the IC50 in data set [1] (setting [6]) was found to be 40.2 µM; in data set [2] (setting [7]), 38.5 µM. Further, the figures for the concentration for a half-maximal effect (EC50) in data set [5] (setting [9]) and in data set [5] (setting [11]) were 50.3 µM and 31 µM, respectively. In data set [5] (setting [10]), the “NRF2 activation +GSH Emax” value came out at 61%. For the same compound, the “NRF2 activation −GSH Emax” value in data set [5] (setting [12]) was 120%.

`C=C(Cc1nc(CCCCCCCC)c(C)o1)C(=O)O` [Example 107, 2-((5-methyl-4-octyloxazol-2-yl)methyl)acrylic acid]: the half-maximal inhibitory concentration (IC50) in data set [1] (setting [6]) was 9.5 µM; in data set [2] (differentiated THP-1 cells), 8.4 µM. Also, the hepatocyte CLint at 10 μM in data set [3] is over 460 µL/min/1e6 cells; in data set [4] it was 161 µL/min/1e6 cells. The half-life at 10 μM was under 3 min in data set [3] and 8 min in data set [4].

Consider `C#CCCCCCCc1noc(CC(=C)C(=O)O)n1` [Example 35, 2-((3-(oct-7-yn-1-yl)-1,2,4-oxadiazol-5-yl)methyl)acrylic acid], for which the values for the IC50 in data set [1] (setting [6]) and in data set [2] (setting [7]) were over 100 µM and 34.6 µM, respectively. Moreover, the “IL-1β lowering, result in words” value in data set [1] was “not effective”. In addition, the EC50 in data set [5] (setting [9]) came to 48.9 µM; in data set [5] (setting [11]) it was 43.6 µM. For the same compound, in data set [5] (setting [10]), the “NRF2 activation +GSH Emax” value was found to be 55%. Besides, the “NRF2 activation −GSH Emax” value in data set [5] (setting [12]) was found to be 91%.

As for `C=C(Cc1nc(C2(c3cc(F)c(Cl)c(F)c3)CC2)no1)C(=O)O` [Example 135, 2-((3-(1-(4-chloro-3,5-difluorophenyl)cyclopropyl)-1,2,4-oxadiazol-5-yl)methyl)acrylic acid], the values for the half-inhibitory concentration (IC50) in data set [1] (setting [6]) and in data set [2] (differentiated THP-1 cells) were 13.2 µM and 17.9 µM, respectively. Moreover, the hepatocyte CLint at 10 μM stood at 159 µL/min/1e6 cells in data set [3] and 31 µL/min/1e6 cells in data set [4]. Moreover, the half-life at 10 μM turned out to be 8 min in data set [3] and 45 min in data set [4].

For `C=C(C(=O)O)C1(c2nc(C(F)(F)c3ccc(C(F)(F)F)cc3)no2)CC1` [Example 173, 2-(1-(3-(difluoro(4-(trifluoromethyl)phenyl)methyl)-1,2,4-oxadiazol-5-yl)cyclopropyl)acrylic acid], the half-maximal inhibitory concentration (IC50) was 7.6 µM in data set [1] (setting [6]) and over 100 µM in data set [2] (differentiated THP-1 cells). Also, the figures for the half-maximal effective concentration (EC50) in data set [5] (setting [9]) and in data set [5] (setting [11]) were 61.1 µM and 52.5 µM, respectively. Further, in data set [5] (setting [10]), the “NRF2 activation +GSH Emax” value is given as 2.1%. The “NRF2 activation −GSH Emax” value in data set [5] (setting [12]) is on record as 64%.

Turning to `C/C(=C\c1nc(C2(c3ccc(SC(F)(F)F)cc3)CC2)no1)C(=O)O` [Example 170], the half-maximal inhibitory concentration (IC50) was over 31.6 µM in data set [1] (setting [8]), over 31.6 µM in data set [1] (setting [6]) and 21 µM in data set [2] (differentiated THP-1 cells). Further, the EC50 in data set [5] (setting [9]) came out at 34.9 µM; in data set [5] (−GSH, Table 5 exo vs endo comparison, read-out: −GSH EC50) it was 38.7 µM; in data set [5] (setting [11]) it was 38.7 µM. The “NRF2 activation +GSH Emax” value in data set [5] (setting [10]) is on record as 96.5%. In data set [5] (setting [12]), the “NRF2 activation −GSH Emax” value is recorded as 177%. Besides, the “−GSH Emax” value in data set [5] (−GSH, normalised to DMF high control, Table 5 exo vs endo comparison) is 177%.
